Reference: US20070105874A1, “Anti-Tumor Methods Using Multi Drug Resistance Independent Synthetic HSP90 Inhibitors” (Conforma Therapeutics Corporation, priority 2005, published 2007)

Tests used:
[1] = tested on: H295R adrenal cortical carcinoma cells; assay: MTS cytotoxicity assay in H295R adrenal cortical carcinoma cells; conditions: 5 days
Description: H295R cells were plated in 96-well plate at low confluence and were analyzed for IC50 as described in FIG. 2 with indicated compounds.
(§1) MTS assays measure the cytotoxicity of the compounds. […] Cells were seeded in 96 well plates at 2000 cells/well and allowed to adhere overnight in Dulbecco's modified Eagle's medium supplemented with 10% fetal bovine serum. The final culture volume was 100 μl. Viable cell number was determined by using the Celltiter 96 AQueous Non-radioactive Cell Proliferation Assay (Promega, Madison Wis.). The MTS/PMS (phenazine methosulfate) solution was mixed at a ratio of 20:1, and 20 μL was added per well to 100 μl of culture medium. After 2-4 hours, the formation of the formazan product was measured at 490 nm absorbance using a multiwell plate spectrophotometer. Background was determined by measuring the Abs 490 nm of cell culture medium and MTS-PMS in the absence of cells and was subtracted from all values. Percent viable cells was calculated as follows: % viable cells=(Abs at 490 nm treated cells/Abs at 490 nm untreated cells)×100

P-gp = target: T1, P-gp (Homo sapiens, UniProt P08183); assay: Rhodamine 123 retention (P-gp efflux inhibition) in H295R cells; assay type: cell-based; conditions: rhodamine 123, concentrations up to 10 mM
T1 construct: adrenocortical carcinoma, a tumor that naturally expresses P-gp; endogenous in cells; host or cells: H295R adrenal cortical carcinoma cells
Description: Rhodamine 123 level within cells was measured by flow cytometry as described in FIG. 9.

[2] = tested on: P-gp over-expressing MES SA Dx5 and NCI/ADR-Res cells; assay: MTS cytotoxicity assay in P-gp over-expressing versus non-expressing cell lines; assay type: cell-based
Description: The cell lines were plated in 96-well plate at 10-20% confluence and treated with increasing concentrations of indicated drug from 1 nM to 10 mM. 5 days later, the surviving fraction was estimated by MTS assay.
as §1

| SMILES | cytotoxic potency in adrenal cortical carcinoma [1] | inhibitory effect on P-gp efflux activity (P-gp) | P-gp substrate status ([2]; cytotoxicity in cell lines expressing P-gp or MRP to various extent) | increase of IC50 in P-gp+++ lines ([2]; P-gp+++ lines) |
| --- | --- | --- | --- | --- |
| C=CCNC1=C2CC(C)CC(OC)C(O)C(C)/C=C(\C)C(OC(N)=O)C(OC)/C=C\C=C(/C)C(=O)NC(=CC1=O)C2=O (centres unmarked) [Compound 17-AAG, (4E,6Z,10E)-19-(allylamino)-13-hydroxy-8,14-dimethoxy-4,10,12,16-tetramethyl-3,20,22-trioxo-2-azabicyclo[16.3.1]docosa-1(21),4,6,10,18-pentaen-9-yl carbamate] | more potent than CsA | No inhibitory effect |  |  |
| CO[C@H]1/C=C\C=C(/C)C(=O)NC2=CC(=O)C(NCCN(C)C)=C(C[C@@H](C)C[C@H](OC)[C@H](O)[C@@H](C)/C=C(\C)[C@@H]1OC(N)=O)C2=O [Compound 17-DMAG, (4E,6Z,8S,9S,10E,12S,13R,14S,16R)-19-(2-(dimethylamino)ethylamino)-13-hydroxy-8,14-dimethoxy-4,10,12,16-tetramethyl-3,20,22-trioxo-2-azabicyclo[16.3.1]docosa-1(21),4,6,10,18-pentaen-9-yl carbamate] | weak |  | P-gp substrates |  |
| COc1c(C)cnc(Cn2cc(C#CCCC(N)=O)c3c(Cl)nc(N)nc32)c1C [Compound XI, 5-(2-amino-4-chloro-7-((4-methoxy-3,5-dimethylpyridin-2-yl)methyl)-7H-pyrrolo[2,3-d]pyrimidin-5-yl)pent-4-ynamide] |  |  |  | 10-20 fold |
